# Patent publication US4479951A, “1.4;3.6-Dianhydrohexitol nitrates substituted by purine bases, processes for their preparation and pharmaceutical compositions” (Dr. Willmar Schwabe GmbH & Co., priority 1980, dated 1984)
# Columns and labels:
# [1] = tested on: isolated rat aorta preparations; test: spasmolytic effectiveness, potassium chloride-induced contractions; details: read-out: ED50 potassium chloride spasm
# [2] = tested on: isolated rat aorta preparations; test: spasmolytic effectiveness, noradrenaline-induced contractions; details: read-out: ED50 noradrenaline spasm
# guinea pigs = test: blood pressure-lowering effectiveness on narcotised guinea pigs, intravenous; format: in vivo, guinea pig; details: for blood pressure previously: before administration
# female NMRI-albino mice = test: acute toxicity, intravenous; format: in vivo; details: within 24 hours
# [3] = acute toxicity, intravenous; format: in vivo; details: mouse, in vivo, iv; within 24 hours; read-out: Evaluated LD50-range
Structure (SMILES),IC50 [1],IC50 [2],blood pressure afterwards (guinea pigs; 0.25 mg/kg i.v.),blood pressure Δ (guinea pigs; 0.25 mg/kg i.v.),blood pressure previously (guinea pigs; 0.25 mg/kg i.v.),blood pressure afterwards (guinea pigs; 1.00 mg/kg i.v.),blood pressure Δ (guinea pigs; 1.00 mg/kg i.v.),blood pressure previously (guinea pigs; 1.00 mg/kg i.v.),blood pressure afterwards (guinea pigs; 2.50 mg/kg i.v.),blood pressure Δ (guinea pigs; 2.50 mg/kg i.v.),blood pressure previously (guinea pigs; 2.50 mg/kg i.v.),Frequency of death (female NMRI-albino mice; 50 mg/kg i.v.),Frequency of death (female NMRI-albino mice; 100 mg/kg i.v.),Frequency of death (female NMRI-albino mice; 200 mg/kg i.v.),LD50 at 24 h [3]
"Cn1c(=O)c2c(ncn2[C@H]2CO[C@H]3[C@@H]2OC[C@@H]3O[N+](=O)[O-])n(C)c1=O [Example 12b, 5-(7-Theophyllinyl)-5-desoxy-1.4;3.6-dianhydro-L-iditol 2-nitrate]",4.2 µM,3.2 µM,–,–,–,–,–,–,–,–,–,–,–,–,–
"CCNc1ncnc2c1ncn2[C@H]1CO[C@H]2[C@@H]1OC[C@@H]2O[N+](=O)[O-] [Example 5b, 5-(6-Ethylaminopurin-9-yl)-5-desoxy-1.4;3.6-dianhydro-L-iditol 2-nitrate]",13 µM,0.38 µM,71.00 ± 5.04 mm. Hg,-5.50 mm. Hg,76.50 ± 2.66 mm. Hg,65.75 ± 3.75 mm. Hg,-12.75 mm. Hg,78.50 ± 1.70 mm. Hg,51.00 ± 3.13 mm. Hg,-25.25 mm. Hg,76.25 ± 2.59 mm. Hg,1/11,3/6,3/3,50 to 100 mg/kg
"CN1CCN(c2ncnc3c2ncn3[C@H]2CO[C@H]3[C@@H]2OC[C@@H]3O[N+](=O)[O-])CC1 [Example 9b, 5-[6-(4-Methylpiperazino)-purin-9-yl]-5-desoxy-1.4;3.6-dianhydro-L-iditol 2-nitrate]",25 µM,2.65 µM,70.25 ± 8.39 mm. Hg,-2.25 mm. Hg,72.50 ± 6.20 mm. Hg,69.75 ± 7.44 mm. Hg,-3.50 mm. Hg,73.25 ± 6.24 mm. Hg,59.75 ± 4.82 mm. Hg,-12.75 mm. Hg,72.50 ± 5.24 mm. Hg,–,4/6,3/3,50 to 100 mg/kg
"CNc1ncnc2c1ncn2[C@H]1CO[C@H]2[C@@H]1OC[C@@H]2O[N+](=O)[O-] [Example 3c, 5-(6-Methylaminopurin-9-yl)-5-desoxy-1.4;3.6-dianhydro-L-iditol 2-nitrate]",4.6 µM,0.48 µM,79.25 ± 2.56 mm. Hg,-0.25 mm. Hg,79.50 ± 2.50 mm. Hg,71.50 ± 3.97 mm. Hg,-8.00 mm. Hg,79.50 ± 2.66 mm. Hg,61.50 ± 3.23 mm. Hg,-15.50 mm. Hg,77.00 ± 2.80 mm. Hg,–,0/6,3/3,100 to 200 mg/kg
"O=[N+]([O-])O[C@H]1CO[C@H]2[C@@H]1OC[C@@H]2n1cnc2c(NCc3ccccc3)ncnc21 [Example 13b, 5-(6-Benzylaminopurin-9-yl)-5-desoxy-1.4;3.6-dianhydro-L-iditol 2-nitrate]",2.4 µM,0.0168 µM,–,–,–,–,–,–,–,–,–,–,–,–,–
"O=[N+]([O-])O[C@H]1CO[C@H]2[C@@H]1OC[C@@H]2n1cnc2c(N3CCCC3)ncnc21 [Example 6b, 5-(6-Pyrrolidinopurin-9-yl)-5-desoxy-1.4;3.6-dianhydro-L-iditol 2-nitrate]",4.07 µM,0.54 µM,51.50 ± 4.94 mm. Hg,-13.50 mm. Hg,65.00 ± 4.02 mm. Hg,44.75 ± 2.84 mm. Hg,-20.75 mm. Hg,65.50 ± 2.36 mm. Hg,37.25 ± 1.11 mm. Hg,-24.75 mm. Hg,62.00 ± 2.04 mm. Hg,0/3,3/3,3/3,50 to 100 mg/kg
"CN(C)c1ncnc2c1ncn2[C@H]1CO[C@H]2[C@@H]1OC[C@@H]2O[N+](=O)[O-] [Example 4b, 5-(6-Dimethylaminopurin-9yl)-5-desoxy-1.4;3.6-dianhydro-L-iditol 2-nitrate]",29 µM,0.22 µM,63.25 ± 4.23 mm. Hg,-10.50 mm. Hg,73.75 ± 2.14 mm. Hg,59.00 ± 1.47 mm. Hg,-15.00 mm. Hg,74.00 ± 1.91 mm. Hg,43.50 ± 2.50 mm. Hg,-28.50 mm. Hg,72.00 ± 2.45 mm. Hg,0/3,3/3,3/3,50 to 100 mg/kg
"CC(C)(C)C(=O)Nc1ncnc2c1ncn2[C@H]1CO[C@H]2[C@@H]1OC[C@@H]2O[N+](=O)[O-] [Example 10, 5-[9-(6-N-Pivaloyl)-adenyl]-5-desoxy-1.4;3.6-dianhydro-L-iditol 2-nitrate]",6.5 µM,0.302 µM,–,–,–,–,–,–,–,–,–,–,–,–,–
"O=[N+]([O-])O[C@H]1CO[C@H]2[C@@H]1OC[C@@H]2n1cnc2c(N3CCCCC3)ncnc21 [Example 7b, 5-(6-Piperidinopurin-9-yl)-5-desoxy-1.4;3.6-dianhydro-L-iditol 2-nitrate]",2.9 µM,0.24 µM,–,–,–,–,–,–,–,–,–,–,–,–,–
"O=[N+]([O-])O[C@H]1CO[C@H]2[C@@H]1OC[C@@H]2n1cnc2c(N3CCOCC3)ncnc21 [Example 8b, 5-(6-Morpholinopurin-9-yl)-5-desoxy-1.4;3.6-dianhydro-L-iditol 2-nitrate]",3 µM,0.29 µM,–,–,–,–,–,–,–,–,–,–,–,–,–
"O=[N+]([O-])O[C@@H]1CO[C@H]2[C@@H]1OC[C@@H]2O [ISMN, 1.4;3.6-dianhydro-D-glucitol 2-nitrate, reference compound]",–,–,53.90 ± 3.10 mm. Hg,–,57.60 ± 3.10 mm. Hg,48.40 ± 3.20 mm. Hg,–,54.70 ± 3.80 mm. Hg,41.40 ± 3.90 mm. Hg,–,52.30 ± 4.80 mm. Hg,–,–,–,–
